Where no end group is shown, it is not given here.
Experiments:
anti-peptide mouse IgG = test: Anti-peptide immune response assay (Elisa) on serum of immunized mice; type: in vivo, Male C57BL/6 mice; conditions: for Elisa Test pep before B16FO given / Elisa Test pep after B16FO given: read at 450 nm
Protocol: In another embodiment, the synthesized oligopeptides were biotinylated at N-terminal using four carbon spacers by Genscript (Pitcataway, N.J. 08554 USA) and conjugated to KLH protein. In an experiment performed on mice animals were procured, immunized, tumor induced and observed for effectiveness of the treatment of oligopeptide-induced immunotherapy.
The injections were prepared using 100 μl l of KLH conjugated biotinylated peptides and 100 μl of complete Freund's adjuvant (Sigma, St. Louis, Mo.).
(§1) Male C57BL/6 mice 6 weeks of age on arrival were purchased from Simonsen Laboratories, Gilroy, Calif. and maintained in microisolator cage under pathogen-free conditions on a 12-h light/12-h dark schedule for a week. All animals were cared for in accordance with institutional guidelines for the care and use of experimental animals. After housing for a week, the mice (n=5/group) were immunized by intraperitoneal injection on Day 0, and incomplete Freund adjuvant (Sigma) on Day 7, 14 and 28. The blood samples were tested for their immune response by standard Elisa test using microtiter plates. Repeating injections of synthetic peptides in mice produce an immune response to specific individual peptides. Various dilutions were tried and examples of dilutions tried are 1:100, 1:1000 and 1:10000.
All four peptides were conjugated covalently to keyhole limpet hemocyanin (KLH) protein. In a typical experiment 1 mg of the peptide, 4 mg of KLH was dissolved in 5 ml of 0.01 M NaHCO3 and 2 μl of glutaraldehyde and stirred overnight. At the end 100 μl of 1M glycine ethyl ester to the final concentration of 0.1 M and left for 30 min at room temperature. Then precipitated with 4-5 vol of cold acetone at −70 C for 30 minute. Then briefly warmed at room temperature and pellet at 10,000 g for 10 min. The pellet was dissolved in 1 ml of 0.1M NaHCO3 and stored at −20° C.
Microtiter plates were coated with individual peptide in 100 µl/well […] carbonate buffer, pH 9.5 for 20 h at 20° C. After washing, wells were incubated with serial dilution of mouse serum in PBS/0.5% BSA, Tween 20 (binding buffer, BB). After washing, well were incubated with 100 µl/well rabbit anti-mouse IgG polyclonal antibody conjugated with horseradish peroxidase (HRP) in BB for 30 rain at 37° C. After washing, the titer of anti-peptide mouse IgG was determined by color reaction with TMB substrate solution at 450 nm.

[1] = system: murine melanoma B16F0 cells; test: Tumor growth after challenge of immunized mice with melanoma cells; type: in vivo, Male C57BL/6 mice; conditions: visual, FIG. 7 A-E
Source text: as §1
After dosing the mice, on 45th day, mice were bleed through orbital puncture and blood was collected in 2-ml micro centrifuged tube. After testing for immune response against individual peptides, the mice in each group were inoculated subcutaneously with 0.5×10^6 in 0.2 ml PBS. After injection, the mice were returned the cages and fed regular Purina mouse chow diet. After four weeks, the mice were sacrificed and their tumors were excised. Dimensions (length and width) of tumors were measured using digital caliper, and tumor burden was calculated using the following formula: […].

[2] = column 5, serum dilution 1:1000
[3] = column 5, serum dilution 1:10000
[4] = column 6, serum dilution 1:1000
[5] = column 6, serum dilution 1:10000
[6] = column 7, serum dilution 1:1000
[7] = column 7, serum dilution 1:10000
[8] = column 8, serum dilution 1:1000
[9] = column 8, serum dilution 1:10000
[10] = column 9, serum dilution 1:1000
[11] = column 9, serum dilution 1:10000
[12] = column 10, serum dilution 1:100
[13] = column 10, serum dilution 1:1000
[14] = column 10, serum dilution 1:10000
[15] = column 11, serum dilution 1:100
[16] = column 11, serum dilution 1:1000
[17] = column 11, serum dilution 1:10000
[18] = column 12, serum dilution 1:100
[19] = column 12, serum dilution 1:1000
[20] = column 12, serum dilution 1:10000

Row | Substance | Elisa Test pep before B16FO given (anti-peptide mouse IgG; column 5, serum dilution 1:100) | Elisa Test pep before B16FO given (anti-peptide mouse IgG; [2]) | Elisa Test pep before B16FO given (anti-peptide mouse IgG; [3]) | Elisa Test pep before B16FO given (anti-peptide mouse IgG; column 6, serum dilution 1:100) | Elisa Test pep before B16FO given (anti-peptide mouse IgG; [4]) | Elisa Test pep before B16FO given (anti-peptide mouse IgG; [5]) | Elisa Test pep before B16FO given (anti-peptide mouse IgG; column 7, serum dilution 1:100) | Elisa Test pep before B16FO given (anti-peptide mouse IgG; [6]) | Elisa Test pep before B16FO given (anti-peptide mouse IgG; [7]) | Elisa Test pep before B16FO given (anti-peptide mouse IgG; column 8, serum dilution 1:100) | Elisa Test pep before B16FO given (anti-peptide mouse IgG; [8]) | Elisa Test pep before B16FO given (anti-peptide mouse IgG; [9]) | Elisa Test pep after B16FO given (anti-peptide mouse IgG; column 9, serum dilution 1:100) | Elisa Test pep after B16FO given (anti-peptide mouse IgG; [10]) | Elisa Test pep after B16FO given (anti-peptide mouse IgG; [11]) | Elisa Test pep after B16FO given (anti-peptide mouse IgG; [12]) | Elisa Test pep after B16FO given (anti-peptide mouse IgG; [13]) | Elisa Test pep after B16FO given (anti-peptide mouse IgG; [14]) | Elisa Test pep after B16FO given (anti-peptide mouse IgG; [15]) | Elisa Test pep after B16FO given (anti-peptide mouse IgG; [16]) | other results
1 | -C-P-R-K-P-K-W-D-K-C- (CPRKPKWDKC; cysteine pairing not given here; also: biotinylated, KLH conjugate) [MMP-2 A-4, MMP-2 oligopeptide, biotinylated and conjugated to KLH for immunization] | 1.485 | .650 | .220 | 2.409 | .974 | .257 | 1.811 | .771 | .208 | 1.649 | .289 | .168 | 1.836 | .706 | .290 | 3.172 | 1.286 | .313 | 2.278 | .775 | intensity of immune response (anti-peptide mouse IgG; 1:100 dilution): slightly less; Elisa Test pep after B16FO given (anti-peptide mouse IgG; [17]): .230; Elisa Test pep after B16FO given (anti-peptide mouse IgG; [18]): 1.621; Elisa Test pep after B16FO given (anti-peptide mouse IgG; [19]): .294; Elisa Test pep after B16FO given (anti-peptide mouse IgG; [20]): .167
2 | -D-R-D-K-L-F-G-F-C-P-T-R-A-D-S- (DRDKLFGFCPTRADS; also: biotinylated, KLH conjugate) [MMP-9 A-3, MMP-9 oligopeptide, biotinylated and conjugated to KLH for immunization] | 3.775 | .394 | .159 | 3.810 | 2.157 | .631 | 1.991 | .272 | .159 | 3.812 | 2.281 | .267 | 3.776 | .448 | .167 | 3.814 | 1.332 | .209 | 2.063 | .448 | size of excised tumors [1]: one of the tumors have completely disappeared; Elisa Test pep after B16FO given (anti-peptide mouse IgG; [17]): .158; Elisa Test pep after B16FO given (anti-peptide mouse IgG; [18]): 3.84; Elisa Test pep after B16FO given (anti-peptide mouse IgG; [19]): 2.34; Elisa Test pep after B16FO given (anti-peptide mouse IgG; [20]): .296

— patent publication US8067009B1, “Metalloproteinase oligopeptides and their therapeutic use” (priority 2011, dated 2011)
